From patent US20230085307A1, “PYRIDAZINONE COMPOUND AND HERBICIDE” (NISSAN CHEMICAL CORPORATION, priority 2019, published 2023)

Experiments:
barnyard grass [1] = assay: Test Example 3: herbicidal effect by foliage application, Wagner pot (Table 18, symbol H); format: in vivo, barnyard grass (Echinochloa crus-galli); details: 320 g/ha
Outline: (§1)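 Plants were sown in alluvial soil held under 0.1–0.5 cm standing water and grown 14 days in a greenhouse at 25–30 °C. An emulsifiable formulation, water-diluted to the set dose, was then sprayed onto the foliage, and effects were scored three weeks later using previously defined criteria.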

Chinese sprangletop = assay: Test Example 3: herbicidal effect by foliage application, Wagner pot (Table 18, symbol D); format: in vivo, chinese sprangletop (Leptochloa chinensis); details: 320 g/ha
Outline: as §1

rice flat sedge = assay: Test Example 3: herbicidal effect by foliage application, Wagner pot (Table 18, symbol E); format: in vivo, rice flat sedge (Cyperus iria); details: 320 g/ha
Outline: as §1

southern crabgrass = assay: Test Example 5: herbicidal effect by foliage application, plastic box (Table 20, symbol F); format: in vivo, southern crabgrass (Digitaria ciliaris); details: foliage application
Outline: (§2)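 Post-emergence foliar test in sterilized diluvial soil. Compound applied as water-diluted emulsion at a predetermined rate to 14-day-old plants; evaluation at three weeks.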

green foxtail = assay: Test Example 5: herbicidal effect by foliage application, plastic box (Table 20, symbol G); format: in vivo, green foxtail (Setaria viridis); details: foliage application
Outline: as §2

barnyard grass [2] = assay: Test Example 5: herbicidal effect by foliage application, plastic box (Table 20, symbol H); format: in vivo, barnyard grass (Echinochloa crus-galli); details: foliage application
Outline: as §2

wild oat = assay: Test Example 5: herbicidal effect by foliage application, plastic box (Table 20, symbol I); format: in vivo, wild oat (Avena fatua); details: foliage application
Outline: as §2

blackgrass = assay: Test Example 5: herbicidal effect by foliage application, plastic box (Table 20, symbol J); format: in vivo, blackgrass (Alopecurus myosuroides); details: foliage application
Outline: as §2

Italian ryegrass = assay: Test Example 5: herbicidal effect by foliage application, plastic box (Table 20, symbol K); format: in vivo, Italian ryegrass (Lolium multiflorum); details: foliage application
Outline: as §2

windgrass = assay: Test Example 5: herbicidal effect by foliage application, plastic box (Table 20, symbol L); format: in vivo, windgrass (Apera spica-venti); details: foliage application
Outline: as §2

velvetleaf = assay: Test Example 5: herbicidal effect by foliage application, plastic box (Table 20, symbol M); format: in vivo, velvetleaf (Abutilon theophrasti); details: foliage application
Outline: as §2

redroot pigweed = assay: Test Example 5: herbicidal effect by foliage application, plastic box (Table 20, symbol N); format: in vivo, redroot pigweed (Amaranthus retroflexus); details: foliage application
Outline: as §2

lambsquarters = assay: Test Example 5: herbicidal effect by foliage application, plastic box (Table 20, symbol O); format: in vivo, lambsquarters (Chenopodium album); details: foliage application
Outline: as §2

chickweed = assay: Test Example 5: herbicidal effect by foliage application, plastic box (Table 20, symbol P); format: in vivo, common chickweed (Stellaria media); details: foliage application
Outline: as §2

false cleavers = assay: Test Example 5: herbicidal effect by foliage application, plastic box (Table 20, symbol Q); format: in vivo, false cleavers (Galium spurium); details: foliage application
Outline: as §2

persian speedwell = assay: Test Example 5: herbicidal effect by foliage application, plastic box (Table 20, symbol R); format: in vivo, Persian speedwell (Veronica persica); details: foliage application
Outline: as §2

[3] = 320 g/ha, three weeks after application
[4] = AAH 80 g/ha, three weeks after application
[5] = 320 g/ha, evaluated three weeks after application

Cc1nn(C)c(=O)c(-c2c(-c3ccccc3O)sc3ccccc23)c1O [1-009]
herbicidal effect on H (barnyard grass), rating 0-5 (barnyard grass [1]): 3 (Herbicidal rate of 40% or more and less than 70%)
herbicidal effect on D (Chinese sprangletop), rating 0-5 (Chinese sprangletop): 2 (Herbicidal rate of 20% or more and less than 40%)
herbicidal effect on E (rice flat sedge), rating 0-5 (rice flat sedge): 2 (Herbicidal rate of 20% or more and less than 40%)
herbicidal effect grade, F: southern crabgrass (southern crabgrass; [3]): 3 (Herbicidal rate of 40% or more and less than 70%)
herbicidal effect grade, G: green foxtail (green foxtail; [3]): 3 (Herbicidal rate of 40% or more and less than 70%)
herbicidal effect grade, H: barnyard grass (barnyard grass [2]; [3]): 2 (Herbicidal rate of 20% or more and less than 40%)
herbicidal effect grade, I: wild oat (wild oat; [3]): 0 (Herbicidal rate of 5% or less (almost no effect))
herbicidal effect grade, J: blackgrass (blackgrass; [3]): 0 (Herbicidal rate of 5% or less (almost no effect))
herbicidal effect grade, K: Italian ryegrass (Italian ryegrass; [3]): 0 (Herbicidal rate of 5% or less (almost no effect))
herbicidal effect grade, L: windgrass (windgrass; [3]): 0 (Herbicidal rate of 5% or less (almost no effect))
herbicidal effect grade, M: velvetleaf (velvetleaf; [3]): 0 (Herbicidal rate of 5% or less (almost no effect))
herbicidal effect grade, N: redroot pigweed (redroot pigweed; [3]): 0 (Herbicidal rate of 5% or less (almost no effect))
herbicidal effect grade, O: lambsquarters (lambsquarters; [3]): 0 (Herbicidal rate of 5% or less (almost no effect))
herbicidal effect grade, P: chickweed (chickweed; [3]): 4 (Herbicidal rate of 70% or more and less than 90%)
herbicidal effect grade, Q: false cleavers (false cleavers; [3]): 0 (Herbicidal rate of 5% or less (almost no effect))
herbicidal effect grade, R: persian speedwell (persian speedwell; [3]): 4 (Herbicidal rate of 70% or more and less than 90%)

CSc1cc(F)ccc1-c1sc2ccccc2c1-c1c(O)c(C)nn(C)c1=O [1-063]
herbicidal effect on H (barnyard grass), rating 0-5 (barnyard grass [1]): 2 (Herbicidal rate of 20% or more and less than 40%)
herbicidal effect on D (Chinese sprangletop), rating 0-5 (Chinese sprangletop): 0 (Herbicidal rate of 5% or less (almost no effect))
herbicidal effect on E (rice flat sedge), rating 0-5 (rice flat sedge): 3 (Herbicidal rate of 40% or more and less than 70%)
herbicidal effect grade, F: southern crabgrass (southern crabgrass; [3]): 0 (Herbicidal rate of 5% or less (almost no effect))
herbicidal effect grade, G: green foxtail (green foxtail; [3]): 0 (Herbicidal rate of 5% or less (almost no effect))
herbicidal effect grade, H: barnyard grass (barnyard grass [2]; [3]): 0 (Herbicidal rate of 5% or less (almost no effect))
herbicidal effect grade, I: wild oat (wild oat; [3]): 2 (Herbicidal rate of 20% or more and less than 40%)
herbicidal effect grade, J: blackgrass (blackgrass; [3]): 3 (Herbicidal rate of 40% or more and less than 70%)
herbicidal effect grade, K: Italian ryegrass (Italian ryegrass; [3]): 1 (Herbicidal rate of 5% or more and less than 20%)
herbicidal effect grade, M: velvetleaf (velvetleaf; [3]): 0 (Herbicidal rate of 5% or less (almost no effect))
herbicidal effect grade, N: redroot pigweed (redroot pigweed; [3]): 0 (Herbicidal rate of 5% or less (almost no effect))
herbicidal effect grade, O: lambsquarters (lambsquarters; [3]): 3 (Herbicidal rate of 40% or more and less than 70%)
herbicidal effect grade, P: chickweed (chickweed; [3]): 5 (Herbicidal rate of 90% or more (almost completely withered))
herbicidal effect grade, Q: false cleavers (false cleavers; [3]): 2 (Herbicidal rate of 20% or more and less than 40%)
herbicidal effect grade, R: persian speedwell (persian speedwell; [3]): 4 (Herbicidal rate of 70% or more and less than 90%)

CCCC(=O)Oc1c(OC)nn(C)c(=O)c1-c1c(-c2ccc(-c3ccccc3)cc2)sc2ccccc12 [1-167]
F: southern crabgrass, herbicidal effect (southern crabgrass; [4]): 0 (Herbicidal rate of 5% or less (almost no effect))
G: green foxtail, herbicidal effect (green foxtail; [4]): 0 (Herbicidal rate of 5% or less (almost no effect))
H: barnyard grass, herbicidal effect (barnyard grass [2]; [4]): 0 (Herbicidal rate of 5% or less (almost no effect))
I: wild oat, herbicidal effect (wild oat; [4]): 0 (Herbicidal rate of 5% or less (almost no effect))
J: blackgrass, herbicidal effect (blackgrass; [4]): 0 (Herbicidal rate of 5% or less (almost no effect))
K: Italian ryegrass, herbicidal effect (Italian ryegrass; [4]): 0 (Herbicidal rate of 5% or less (almost no effect))
L: windgrass, herbicidal effect (windgrass; [4]): 0 (Herbicidal rate of 5% or less (almost no effect))
M: velvetleaf, herbicidal effect (velvetleaf; [4]): 0 (Herbicidal rate of 5% or less (almost no effect))
N: redroot pigweed, herbicidal effect (redroot pigweed; [4]): 3 (Herbicidal rate of 40% or more and less than 70%)
O: lambsquarters, herbicidal effect (lambsquarters; [4]): 2 (Herbicidal rate of 20% or more and less than 40%)
P: chickweed, herbicidal effect (chickweed; [4]): 1 (Herbicidal rate of 5% or more and less than 20%)
Q: false cleavers, herbicidal effect (false cleavers; [4]): 3 (Herbicidal rate of 40% or more and less than 70%)
R: persian speedwell, herbicidal effect (persian speedwell; [4]): 3 (Herbicidal rate of 40% or more and less than 70%)

CCCC(=O)Oc1c(C)nn(C)c(=O)c1-c1c(-c2ccc(OC)c(C)c2)sc2ccc(Cl)cc12 [2-120]
herbicidal effect on F: southern crabgrass (southern crabgrass; [5]): 0 (Herbicidal rate of 5% or less (almost no effect))
herbicidal effect on G: green foxtail (green foxtail; [5]): 0 (Herbicidal rate of 5% or less (almost no effect))
herbicidal effect on H: barnyard grass (barnyard grass [2]; [5]): 0 (Herbicidal rate of 5% or less (almost no effect))
herbicidal effect on I: wild oat (wild oat; [5]): 0 (Herbicidal rate of 5% or less (almost no effect))
herbicidal effect on J: blackgrass (blackgrass; [5]): 0 (Herbicidal rate of 5% or less (almost no effect))
herbicidal effect on K: Italian ryegrass (Italian ryegrass; [5]): 0 (Herbicidal rate of 5% or less (almost no effect))
herbicidal effect on L: windgrass (windgrass; [5]): 0 (Herbicidal rate of 5% or less (almost no effect))
herbicidal effect on M: velvetleaf (velvetleaf; [5]): 0 (Herbicidal rate of 5% or less (almost no effect))
herbicidal effect on N: redroot pigweed (redroot pigweed; [5]): 0 (Herbicidal rate of 5% or less (almost no effect))
herbicidal effect on O: lambsquarters (lambsquarters; [5]): 0 (Herbicidal rate of 5% or less (almost no effect))
herbicidal effect on P: chickweed (chickweed; [5]): 5 (Herbicidal rate of 90% or more (almost completely withered))
herbicidal effect on Q: false cleavers (false cleavers; [5]): 4 (Herbicidal rate of 70% or more and less than 90%)
herbicidal effect on R: persian speedwell (persian speedwell; [5]): 5 (Herbicidal rate of 90% or more (almost completely withered))

CCOc1ccccc1-c1cc2c(-c3c(O)c(C)nn(C)c3=O)c(-c3ccccc3OCC)sc2cc1OC [5-079]
herbicidal effect on barnyard grass (H) (barnyard grass [1]): 3 (Herbicidal rate of 40% or more and less than 70%)
herbicidal effect on Chinese sprangletop (D) (Chinese sprangletop): 0 (Herbicidal rate of 5% or less (almost no effect))
herbicidal effect on rice flat sedge (E) (rice flat sedge): 0 (Herbicidal rate of 5% or less (almost no effect))
herbicidal effect on southern crabgrass (F) (southern crabgrass; [3]): 0 (Herbicidal rate of 5% or less (almost no effect))
herbicidal effect on green foxtail (G) (green foxtail; [3]): 0 (Herbicidal rate of 5% or less (almost no effect))
herbicidal effect on barnyard grass (H) (barnyard grass [2]; [3]): 0 (Herbicidal rate of 5% or less (almost no effect))
herbicidal effect on wild oat (I) (wild oat; [3]): 0 (Herbicidal rate of 5% or less (almost no effect))
herbicidal effect on blackgrass (J) (blackgrass; [3]): 0 (Herbicidal rate of 5% or less (almost no effect))
herbicidal effect on Italian ryegrass (K) (Italian ryegrass; [3]): 0 (Herbicidal rate of 5% or less (almost no effect))
herbicidal effect on windgrass (L) (windgrass; [3]): 0 (Herbicidal rate of 5% or less (almost no effect))
herbicidal effect on velvetleaf (M) (velvetleaf; [3]): 0 (Herbicidal rate of 5% or less (almost no effect))
herbicidal effect on lambsquarters (O) (lambsquarters; [3]): 0 (Herbicidal rate of 5% or less (almost no effect))
herbicidal effect on false cleavers (Q) (false cleavers; [3]): 5 (Herbicidal rate of 90% or more (almost completely withered))
herbicidal effect on persian speedwell (R) (persian speedwell; [3]): 0 (Herbicidal rate of 5% or less (almost no effect))
